Values after ≈ are worked out from the molar mass of the structure shown.
Key:
[1] = system: Acinetobacter baumannii DSM-30008; experiment: MIC microdilution, A. baumannii DSM-30008; format: cell-based
Procedure: (§1) Indicator strains used in susceptibility assays were either part of our strain collection or purchased from the German Collection of Microorgansims and Cell Cultures (DSMZ) or from the American Type Culture Collection (ATCC). E. coli strain WT and corresponding E. coli mutants were kindly provided by Prof. Dr. P. Heisig, Pharmaceutical Biology and Microbiology, University of Hamburg. E. coli strains JW0401-1 (WT) and Δtsx were obtained from the CGSC collection.
(§2) MIC values were determined in standardized microdilution assays. Overnight cultures were diluted in the appropriate growth medium to achieve an inoculum of 10^4-10^6 cfu/mL. Yeasts were grown in Myc medium (1% phytone peptone, 1% glucose, 50 mM HEPES, pH 7.0), S. pneumonia and Enterococcus spp. in tryptic soy broth (TSB: 1.7% peptone casein, 0.3% peptone soymeal, 0.25% glucose, 0.5% NaCl, 0.25% K2HPO4; pH 7.3); M. smegmatis in Middlebrook 7H9 medium supplemented with 10% Middlebrook ADC enrichment and 2 ml/I glycerol). All other listed bacteria were grown in Müller-Hinton broth (0.2% beef infusion solids, 1.75% casein hydrolysate, 0.15% starch, pH 7.4). Cystobactamides and reference drugs were added directly to the cultures in sterile 96-well plates as duplicates and serial dilutions were prepared. Microorganisms were grown on a microplate shaker (750 rpm, 30-37° C., 18-48 h), except S. pneumonia, which was grown at non-shaking conditions (37° C., 5% CO2, 18 h). Growth inhibition was assessed by visual inspection and the MIC was defined as the lowest concentration of compound that inhibited visible growth.

[2] = system: Citrobacter freundii DSM-30039; experiment: MIC microdilution, C. freundii DSM-30039; format: cell-based
Procedure: as §1, §2

E. coli DSM-1116 = experiment: MIC microdilution, E. coli DSM-1116; format: cell-based, Escherichia coli
Procedure: as §1, §2

[3] = system: E. coli DSM-26863 (tolC3); experiment: MIC microdilution, E. coli DSM-26863 (tolC3); format: cell-based, Escherichia coli
Procedure: as §1, §2

E. coli JW0401-1 (WT) = experiment: MIC microdilution, E. coli JW0401-1 (WT); format: cell-based, Escherichia coli; details: Gram-negative set
Procedure: as §1
as §2, with “Cystobactamides and reference drugs were added directly to the cultures in sterile 96-well plates as duplicates and serial dilutions were prepared. Microorganisms were grown on a microplate shaker (750 rpm, 30-37° C., 18-48 h), except S. pneumonia, which was grown at non-shaking conditions (37° C., 5% CO2, 18 h).” left out

E. coli Δtsx = experiment: MIC microdilution, E. coli Δtsx; format: cell-based, Escherichia coli; details: Gram-negative set
Procedure: as §1
as §2, with “Cystobactamides and reference drugs were added directly to the cultures in sterile 96-well plates as duplicates and serial dilutions were prepared. Microorganisms were grown on a microplate shaker (750 rpm, 30-37° C., 18-48 h), except S. pneumonia, which was grown at non-shaking conditions (37° C., 5% CO2, 18 h).” left out

E. coli WT = experiment: MIC microdilution, E. coli WT; format: cell-based, Escherichia coli
Procedure: as §1, §2

[4] = system: E. coli WT-3 [gyrA(S83L, D87G)]; experiment: MIC microdilution, E. coli WT-3 [gyrA(S83L, D87G)]; format: cell-based, Escherichia coli
Procedure: as §1, §2

[5] = system: E. coli WT-III [marRΔ74bp]; experiment: MIC microdilution, E. coli WT-III [marRΔ74bp]; format: cell-based, Escherichia coli
Procedure: as §1, §2

[6] = system: P. aeruginosa DSM-24600 (ESBL); experiment: MIC microdilution, P. aeruginosa DSM-24600 (ESBL); format: cell-based, Pseudomonas aeruginosa
Procedure: as §1, §2

[7] = system: Proteus vulgaris DSM-2140; experiment: MIC microdilution, P. vulgaris DSM-2140; format: cell-based
Procedure: as §1, §2

[8] = system: Escherichia coli (TolC-deficient); experiment: MIC microdilution, E. coli (TolC-deficient); format: cell-based; details: larger panel
Procedure: as §1
as §2, with “Cystobactamides and reference drugs were added directly to the cultures in sterile 96-well plates as duplicates and serial dilutions were prepared. Microorganisms were grown on a microplate shaker (750 rpm, 30-37° C., 18-48 h), except S. pneumonia, which was grown at non-shaking conditions (37° C., 5% CO2, 18 h).” left out

[9] = system: Enterobacter cloacae DSM-30054; experiment: MIC microdilution, Enterobacter cloacae DSM-30054; format: cell-based; details: larger panel
Procedure: Dr. P. Heisig, Pharmaceutical Biology and Microbiology, University of Hamburg.
Overnight cultures were diluted in the appropriate growth medium to achieve an inoculum of 10^4-10^6 cfu/mL. […] Cystobactamides and reference drugs were added directly to the cultures in sterile 96-well plates as duplicates and serial dilutions were prepared. Microorganisms were grown on a microplate shaker (750 rpm, 30-37° C., 18-48 h), except S. pneumonia, which was grown at non-shaking conditions (37° C., 5% CO2, 18 h). Growth inhibition was assessed by visual inspection and the MIC was defined as the lowest concentration of compound that inhibited visible growth.

[10] = system: Pseudomonas aeruginosa PA14; experiment: MIC microdilution, P. aeruginosa PA14; format: cell-based; details: larger panel
Procedure: as §1, §2

[11] = system: Pseudomonas aeruginosa ATCC27853; experiment: MIC microdilution, P. aeruginosa ATCC27853; format: cell-based; details: larger panel
Procedure: as §1, §2

[12] = system: Pseudomonas aeruginosa DSM-24599; experiment: MIC microdilution, P. aeruginosa DSM-24599; format: cell-based; details: larger panel
Procedure: as §1, §2

[13] = system: Pseudomonas aeruginosa DSM-46316 (ESBL); experiment: MIC microdilution, P. aeruginosa DSM-46316 (ESBL); format: cell-based; details: larger panel
Procedure: as §1, §2

[14] = system: Serratia marcescens DSM-30121; experiment: MIC microdilution, Serratia marcescens DSM-30121; format: cell-based; details: larger panel
Procedure: as §1, §2

[15] = system: Enterococcus faecium DSM-20477; experiment: MIC microdilution, Enterococcus faecium DSM-20477; format: cell-based; details: larger panel
Procedure: as §1, §2

[16] = system: Staphylococcus epidermidis DSM-28765; experiment: MIC microdilution, Staphylococcus epidermidis DSM-28765; format: cell-based; details: larger panel
Procedure: as §1, §2

[17] = system: CHO-K1 (Chinese hamster ovary cell line); experiment: Cytotoxicity (MTT), CHO-K1 cell line; format: cell-based; details: 5 d incubation
Procedure: CHO-K1 cells were obtained from the DSMZ and were cultured under conditions recommended by the depositor. Cells were seeded at 6×10^3 cells/well of 96-well plates in 180 μl complete medium and treated with compounds in serial dilution after 2 h of equilibration. Each sample was tested in duplicate as well as the internal DMSO control. After 5 d incubation, 20 μl of 5 mg/ml MTT (thiazolyl blue tetrazolium bromide) in PBS was added per well and it was further incubated for 2 h at 37° C. The medium was then discarded and cells were washed with 100 μl PBS before adding 100 μl 2-propanol/10 N HCl (250:1) in order to dissolve formazan granules. The absorbance at 570 nm was measured using a microplate reader (Tecan Infinite M200Pro), and cell viability was expressed as percentage relative to the respective […] control.

E. coli gyrase = target: T1, E. coli gyrase (Escherichia coli, UniProt P0AES4+P0AES6); experiment: E. coli gyrase DNA supercoiling assay; format: biochemical; details: read-out: IC50 Ec gyrase (sc)
T1 construct: purchased Inspiralis, Norwich, UK
Procedure: (§3) To test the anti-gyrase activity of cystobactamides, commercial E. coli and P. aeruginosa gyrase supercoiling kits (Inspiralis, Norwich, UK) were used. For standard reactions 0.5 μg relaxed plasmid were mixed with 1 unit gyrase in 1× reaction buffer (see kit manual) and incubated for 30 min at 37° C. The reactions were quenched by the addition of DNA gel loading buffer containing 10% (w/v) SDS. The samples were separated on 1% (w/v) agarose gels and DNA was visualized using EtBr. All natural products stock solutions and dilutions were prepared in 100% DMSO and added to the supercoiling reactions giving a final DMSO concentration of 2% (v/v).

P. aeruginosa gyrase = target: T2, P. aeruginosa gyrase (Pseudomonas aeruginosa, UniProt P48372+Q9I7C2); experiment: P. aeruginosa gyrase DNA supercoiling assay; format: biochemical; details: read-out: IC50 Pa gyrase (sc)
T2 construct: purchased Inspiralis, Norwich, UK
Procedure: as §3

CO[C@@H](C(N)=O)[C@H](NC(=O)c1ccc(NC(=O)c2ccc([N+](=O)[O-])cc2)cc1)C(=O)Nc1ccc(C(=O)Nc2ccc(C(=O)Nc3ccc(C(=O)O)cc3)c(O)c2OC(C)C)cc1 [Cys 861-2]
MIC A. baumannii DSM-30008 ([1]; Gram-negative set): 0.5 µg/mL (≈ 0.58 µM)
MIC Acinetobacter baumannii DSM-30008 ([1]; larger panel): 0.5 µg/mL (≈ 0.58 µM)
MIC C. freundii DSM-30039 ([2]; Gram-negative set): 0.06 µg/mL (≈ 0.0696 µM)
MIC Citrobacter freundii DSM-30039 ([2]; larger panel): 0.06 µg/mL (≈ 0.0696 µM)
MIC E. coli DSM-1116 (E. coli DSM-1116; Gram-negative set): 0.13 µg/mL (≈ 0.151 µM)
MIC Escherichia coli DSM-1116 (E. coli DSM-1116; larger panel): 0.4 µg/mL (≈ 0.464 µM)
MIC E. coli DSM-26863 (tolC3) ([3]; Gram-negative set): 0.06 µg/mL (≈ 0.0696 µM)
MIC Escherichia coli DSM-26863 (tolC3) ([3]; larger panel): 0.4 µg/mL (≈ 0.464 µM)
MIC E. coli JW0401-1 (WT) (E. coli JW0401-1 (WT)): 0.25 µg/mL (≈ 0.29 µM)
MIC E. coli Δtsx (E. coli Δtsx): 0.25 µg/mL (≈ 0.29 µM)
MIC E. coli WT (E. coli WT; Gram-negative set): 0.13 µg/mL (≈ 0.151 µM)
MIC Escherichia coli WT (E. coli WT; larger panel): 0.125 µg/mL (≈ 0.145 µM)
MIC E. coli WT-3 [gyrA(S83L, D87G)] ([4]; Gram-negative set): 0.5 µg/mL (≈ 0.58 µM)
MIC Escherichia coli WT-3 [gyrA(S83L, D87G)] ([4]; larger panel): 0.5 µg/mL (≈ 0.58 µM)
MIC E. coli WT-III [marRΔ74bp] ([5]; Gram-negative set): 0.5 µg/mL (≈ 0.58 µM)
MIC Escherichia coli WTIII (marRΔ74bp) ([5]; larger panel): 0.5 µg/mL (≈ 0.58 µM)
MIC P. aeruginosa DSM-24600 (ESBL) ([6]; Gram-negative set): 1 µg/mL (≈ 1.16 µM)
MIC Pseudomonas aeruginosa DSM-24600 (ESBL) ([6]; larger panel): 1 µg/mL (≈ 1.16 µM)
MIC P. vulgaris DSM-2140 ([7]; Gram-negative set): 0.25 µg/mL (≈ 0.29 µM)
MIC Proteus vulgaris DSM-2140 ([7]; larger panel): 0.25 µg/mL (≈ 0.29 µM)
MIC Escherichia coli (TolC-deficient) [8]: 0.06 µg/mL (≈ 0.0696 µM)
MIC Enterobacter cloacae DSM-30054 [9]: 64 µg/mL (≈ 74.3 µM)
MIC Pseudomonas aeruginosa PA14 [10]: 2 µg/mL (≈ 2.32 µM)
MIC Pseudomonas aeruginosa ATCC27853 [11]: 4 µg/mL (≈ 4.64 µM)
MIC Pseudomonas aeruginosa DSM-24599 [12]: 2 µg/mL (≈ 2.32 µM)
MIC Pseudomonas aeruginosa DSM-46316 (ESBL) [13]: 2 µg/mL (≈ 2.32 µM)
MIC Serratia marcescens DSM-30121 [14]: 64 µg/mL (≈ 74.3 µM)
MIC Enterococcus faecium DSM-20477 [15]: 0.5 µg/mL (≈ 0.58 µM)
MIC Staphylococcus epidermidis DSM-28765 [16]: 0.5 µg/mL (≈ 0.58 µM)
IC50 [17]: > 100000 nM
IC50 (E. coli gyrase): 280 nM
IC50 (P. aeruginosa gyrase): 180 nM
genotoxic effect, micronucleus formation (CHO-K1 cell line): No detectable genotoxic effect

From patent US10519099B2, “Cystobactamides” (priority 2014, dated 2019)
